# What was measured:
# [1] = Drug uptake in rat at 10 mg/kg, po measured at 24 hrs post dose by LC/MS method; type: ADME, organism-based; details: in vivo, read-out: Drug uptake
# [2] = system: Huh-7; assay: Inhibition of HCV genotype-3a NS5A infected in human HuH7 cells by luciferase reporter gene assay; type: cell-based; details: Hepatitis C virus subtype 3a
# [3] = system: Nonstructural protein 5A (Hepatitis C virus), Q5L478 [UNDEFINED MUTATION]; assay: Inhibition of HCV genotype-1a NS5A L31V mutant infected in human HuH7 cells by luciferase reporter gene assay; type: cell-based; details: Hepatitis C virus subtype 1a; Huh-7
# [4] = system: T1, Nonstructural protein 5A (Hepatitis C virus), Q5L478 [Y93H]; assay: Inhibition of HCV genotype-1a NS5A Y93H mutant infected in human HuH7 cells by luciferase reporter gene assay; type: cell-based; details: Hepatitis C virus subtype 1a; Huh-7
# T1 sequence (whole entry): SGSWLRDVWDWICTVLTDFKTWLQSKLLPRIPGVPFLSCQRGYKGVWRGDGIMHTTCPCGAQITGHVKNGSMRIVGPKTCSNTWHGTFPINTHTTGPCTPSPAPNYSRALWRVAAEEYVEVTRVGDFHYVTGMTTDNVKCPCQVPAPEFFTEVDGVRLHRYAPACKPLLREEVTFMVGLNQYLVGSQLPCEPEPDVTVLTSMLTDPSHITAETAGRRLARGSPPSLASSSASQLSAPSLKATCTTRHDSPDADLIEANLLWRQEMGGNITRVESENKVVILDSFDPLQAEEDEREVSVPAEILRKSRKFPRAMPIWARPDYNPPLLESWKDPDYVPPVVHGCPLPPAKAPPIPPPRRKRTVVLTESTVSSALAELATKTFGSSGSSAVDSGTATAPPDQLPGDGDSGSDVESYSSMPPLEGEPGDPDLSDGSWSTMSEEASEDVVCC
# [5] = Half life in rat at 2 mg/kg, iv by LC/MS method; type: ADME, organism-based; details: in vivo
# [6] = system: Huh-7; assay: Inhibition of HCV genotype-4a NS5A infected in human HuH7 cells by luciferase reporter gene assay; type: cell-based; details: Hepatitis C virus subtype 4a
# [7] = system: Huh-7; assay: Inhibition of HCV genotype-2b NS5A harboring methionine at position 31 infected in human HuH7 cells by luciferase reporter gene assay; type: cell-based; details: Hepatitis C virus subtype 2b
# [8] = Plasma clearance in rat at 2 mg/kg, iv measured after 24 hrs by LC/MS method; type: ADME, organism-based
# [9] = system: Huh-7; assay: Inhibition of HCV genotype-1a NS5A infected in human HuH7 cells by luciferase reporter gene assay; type: cell-based; details: Hepatitis C virus subtype 1a
# [10] = AUC (0 to t) in rat at 10 mg/kg, po measured after 24 hrs by LC/MS method; type: ADME, organism-based; design: dose 10 mg/kg, time < 24 hr, route oral; details: in vivo
# [11] = Oral bioavailability in rat at 10 mg/kg measured after 24 hrs by LC/MS method; type: ADME, organism-based; details: in vivo
# [12] = Plasma clearance in rhesus monkey at 1 mg/kg, iv measured after 48 hrs by LC/MS/MS method; type: ADME, organism-based, Macaca mulatta
# [13] = Oral bioavailability in rhesus monkey at 5 mg/kg measured at 48 hrs post dose by LC/MS/MS method; type: ADME, organism-based, Macaca mulatta; details: in vivo
# [14] = Half life in rhesus monkey at 1 mg/kg, iv by LC/MS/MS method; type: ADME, organism-based, Macaca mulatta; details: in vivo
# [15] = AUC (0 to t) in rhesus monkey at 5 mg/kg, po measured after 48 hrs by LC/MS/MS method; type: ADME, organism-based, Macaca mulatta; design: dose 5 mg/kg, time < 48 hr, route oral; details: in vivo
Compound,concentration at 24 h [1],EC90 [2],EC90 [3],EC90 [4],half-life [5],EC90 [6],EC90 [7],clearance [8],EC90 [9],AUC(0-t) at 24 h [10],bioavailability [11],clearance [12],bioavailability [13],half-life [14],AUC(0-t) at 48 h [15]
COC(=O)N[C@H](C(=O)N1CCC[C@H]1c1ncc(-c2cc(F)c3c(c2)OC(c2cnc(C4CC4)s2)n2c-3cc3cc(-c4cnc([C@@H]5C[C@H]6C[C@H]6N5C(=O)[C@@H](NC(=O)OC)C(C)C)[nH]4)ccc32)[nH]1)C(C)C (stereo not given in full),1.9 nM,0.011 nM,0.007 nM,0.021 nM,3.9 h,0.006 nM,0.076 nM,12 mL/min/kg,0.006 nM,0.52 µM·h,4%,,,,
COC(=O)N[C@H](C(=O)N1CCC[C@H]1c1ncc(-c2cc(F)c3c(c2)OC(c2cc(C(C)C)no2)n2c-3cc3cc(-c4cnc([C@@H]5CCCN5C(=O)[C@@H](NC(=O)OC)C(C)C)[nH]4)ccc32)[nH]1)C(C)C (stereo not given in full),,0.019 nM,0.056 nM,0.42 nM,,,0.92 nM,,0.002 nM,,,2.2 mL/min/kg,10%,10.2 h,3.9 µM·h
